Laboratory results: ChEMBL document CHEMBL1770097, “Non-competitive and selective dipeptidyl peptidase IV inhibitors with phenethylphenylphthalimide skeleton derived from thalidomide-related α-glucosidase inhibitors and liver X receptor antagonists” (Bioorg Med Chem Lett, 2011)
The source made the active and inactive calls. The rule behind the calls is not given here.

Key:
Dipeptidyl peptidase 4 [1] = target: T1, Dipeptidyl peptidase 4 (Homo sapiens, UniProt P27487); test: Inhibition of DPP4 at 10 uM assessed as […] release after 1 hr relative to control
Target sequence in this assay (P27487 whole entry, looked up): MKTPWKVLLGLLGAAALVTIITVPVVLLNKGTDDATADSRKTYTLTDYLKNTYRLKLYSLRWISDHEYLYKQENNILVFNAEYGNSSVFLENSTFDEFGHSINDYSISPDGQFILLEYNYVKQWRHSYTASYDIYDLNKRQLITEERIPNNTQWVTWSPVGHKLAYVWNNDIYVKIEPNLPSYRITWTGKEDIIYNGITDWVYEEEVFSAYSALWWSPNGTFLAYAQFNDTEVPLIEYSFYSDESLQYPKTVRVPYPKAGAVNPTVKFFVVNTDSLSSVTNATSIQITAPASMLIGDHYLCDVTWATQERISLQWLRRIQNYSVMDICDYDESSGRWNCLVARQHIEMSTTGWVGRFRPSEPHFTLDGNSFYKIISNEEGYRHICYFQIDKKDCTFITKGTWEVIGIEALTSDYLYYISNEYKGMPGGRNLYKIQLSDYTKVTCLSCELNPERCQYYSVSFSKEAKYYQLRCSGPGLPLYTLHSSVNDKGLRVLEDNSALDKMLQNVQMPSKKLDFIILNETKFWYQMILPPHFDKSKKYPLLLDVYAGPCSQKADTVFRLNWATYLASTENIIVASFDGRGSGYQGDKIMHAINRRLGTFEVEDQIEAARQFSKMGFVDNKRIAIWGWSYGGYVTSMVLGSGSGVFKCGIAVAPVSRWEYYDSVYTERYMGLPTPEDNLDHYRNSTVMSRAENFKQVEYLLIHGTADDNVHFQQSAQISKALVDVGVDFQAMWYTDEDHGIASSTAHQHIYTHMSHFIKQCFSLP

[2] = Selectivity ratio of IC50 for DPP4 over IC50 for DPP8
Dipeptidyl peptidase 8 = Dipeptidyl peptidase 8 (Homo sapiens, UniProt Q6V1X1); test: Inhibition of DPP8 assessed as […] release after 1 hr
Sequence of Dipeptidyl peptidase 8 (Q6V1X1 whole entry): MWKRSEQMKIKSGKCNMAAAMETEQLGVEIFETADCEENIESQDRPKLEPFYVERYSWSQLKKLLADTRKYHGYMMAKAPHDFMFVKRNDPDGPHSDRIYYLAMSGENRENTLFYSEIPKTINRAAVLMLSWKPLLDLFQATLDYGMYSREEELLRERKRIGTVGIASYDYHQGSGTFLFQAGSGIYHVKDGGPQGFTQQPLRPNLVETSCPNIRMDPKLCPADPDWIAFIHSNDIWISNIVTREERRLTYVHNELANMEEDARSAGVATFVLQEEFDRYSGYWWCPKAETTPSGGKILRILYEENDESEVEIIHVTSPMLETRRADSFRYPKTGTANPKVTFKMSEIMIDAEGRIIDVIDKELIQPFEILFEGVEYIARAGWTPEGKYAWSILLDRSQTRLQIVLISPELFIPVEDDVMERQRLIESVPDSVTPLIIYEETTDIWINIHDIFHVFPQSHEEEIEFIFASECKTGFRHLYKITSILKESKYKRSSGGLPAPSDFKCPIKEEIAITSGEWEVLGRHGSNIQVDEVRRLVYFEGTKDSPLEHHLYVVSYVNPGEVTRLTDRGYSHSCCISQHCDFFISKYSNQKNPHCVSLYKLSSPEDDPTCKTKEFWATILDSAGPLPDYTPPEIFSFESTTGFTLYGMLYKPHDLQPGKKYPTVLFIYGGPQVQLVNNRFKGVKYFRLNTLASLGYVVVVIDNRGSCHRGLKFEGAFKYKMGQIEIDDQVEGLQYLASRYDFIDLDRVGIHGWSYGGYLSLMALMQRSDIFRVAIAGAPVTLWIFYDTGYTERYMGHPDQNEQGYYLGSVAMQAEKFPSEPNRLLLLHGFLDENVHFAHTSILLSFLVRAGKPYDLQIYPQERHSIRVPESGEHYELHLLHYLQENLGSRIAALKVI

Dipeptidyl peptidase 4 [3] = target: T1, Dipeptidyl peptidase 4; test: Inhibition of DPP4 assessed as […] release after 1 hr

`O=C1c2ccccc2C(=O)N1c1cccc(CCc2ccc(O)c(O)c2)c1` gave an inhibition (Dipeptidyl peptidase 4 [1]) of 7%.

Compound `COc1ccc(CCc2ccc(N3C(=O)c4c(Cl)c(Cl)c(Cl)c(Cl)c4C3=O)cc2)cc1OC` has an inhibition (Dipeptidyl peptidase 4 [1]) of 3%.

For `O=C1c2c(Cl)c(Cl)c(Cl)c(Cl)c2C(=O)N1c1cccc(CCc2ccccc2)c1`, the inhibition (Dipeptidyl peptidase 4 [1]) was 26%.

`O=C1c2ccccc2C(=O)N1c1ccc(CCc2ccc(O)c(O)c2)cc1` gave an inhibition (Dipeptidyl peptidase 4 [1]) of 7%.

Work on `O=C1c2c(Cl)c(Cl)c(Cl)c(Cl)c2C(=O)N1c1cccc(CCc2ccc(O)c(O)c2)c1` yielded an inhibition (Dipeptidyl peptidase 4 [1]) of 5%.

`COc1ccc(CCc2cccc(N3C(=O)c4c(Cl)c(Cl)c(Cl)c(Cl)c4C3=O)c2)cc1OC` gave an inhibition (Dipeptidyl peptidase 4 [1]) of 0%.

For `COc1ccc(CCc2ccccc2N2C(=O)c3c(Cl)c(Cl)c(Cl)c(Cl)c3C2=O)cc1OC`, the inhibition (Dipeptidyl peptidase 4 [1]) was 2%.

For `O=C1c2c(Cl)c(Cl)c(Cl)c(Cl)c2C(=O)N1c1ccc(CCc2ccc(O)c(O)c2)cc1`, the inhibition (Dipeptidyl peptidase 4 [1]) was 11%.

`O=C1c2c(Cl)c(Cl)c(Cl)c(Cl)c2C(=O)N1c1ccccc1CCc1ccccc1` showed an inhibition (Dipeptidyl peptidase 4 [1]) of 7%.

`COc1ccc(CCc2ccc(N3C(=O)c4ccccc4C3=O)cc2)cc1OC` showed an inhibition (Dipeptidyl peptidase 4 [1]) of 0%.

For `O=C1c2c(Cl)c(Cl)c(Cl)c(Cl)c2C(=O)N1c1cccc(CCc2ccc(C(F)(F)F)cc2)c1`, the inhibition (Dipeptidyl peptidase 4 [1]) was 38%.

In the case of `O=C1c2ccccc2C(=O)N1c1cccc(CCc2ccccc2)c1`, the inhibition (Dipeptidyl peptidase 4 [1]) is reported as 2%.

In the case of `O=C1c2c(Cl)c(Cl)c(Cl)c(Cl)c2C(=O)N1c1ccccc1CCc1ccc(O)c(O)c1`, the inhibition (Dipeptidyl peptidase 4 [1]) is reported as 12%.

For `O=C1c2c(Cl)c(Cl)c(Cl)c(Cl)c2C(=O)N1c1cccc(CCc2cccc(C(F)(F)F)c2)c1`, the Ratio IC50 [2] was 10, the IC50 (Dipeptidyl peptidase 8) was > 30 µM and the inhibition (Dipeptidyl peptidase 4 [1]) was 87%. For the same compound, the IC50 (Dipeptidyl peptidase 4 [3]) was 3.1 µM and the inhibition (Dipeptidyl peptidase 4 [3]) was “Active”.

In the case of `O=C1c2ccccc2C(=O)N1c1ccccc1CCc1ccccc1`, the inhibition (Dipeptidyl peptidase 4 [1]) is reported as 0%.

`O=C1c2ccccc2C(=O)N1c1ccc(CCc2ccccc2)cc1` showed an inhibition (Dipeptidyl peptidase 4 [1]) of 6%.

For `COc1ccc(CCc2cccc(N3C(=O)c4ccccc4C3=O)c2)cc1OC`, the inhibition (Dipeptidyl peptidase 4 [1]) was 0%.

In the case of `O=C1c2c(Cl)c(Cl)c(Cl)c(Cl)c2C(=O)N1c1cccc(CCc2ccc(F)cc2)c1`, the inhibition (Dipeptidyl peptidase 4 [1]) is reported as 20%.

`COc1ccc(CCc2ccccc2N2C(=O)c3ccccc3C2=O)cc1OC` gave an inhibition (Dipeptidyl peptidase 4 [1]) of 0%.

In the case of `O=C1c2ccccc2C(=O)N1c1ccccc1CCc1ccc(O)c(O)c1`, the inhibition (Dipeptidyl peptidase 4 [1]) is reported as 4%.

`Cc1ccc(CCc2cccc(N3C(=O)c4c(Cl)c(Cl)c(Cl)c(Cl)c4C3=O)c2)cc1` gave an inhibition (Dipeptidyl peptidase 4 [1]) of 25%.

In the case of `O=C1c2c(Cl)c(Cl)c(Cl)c(Cl)c2C(=O)N1c1cccc(CCc2ccccc2C(F)(F)F)c1`, the inhibition (Dipeptidyl peptidase 4 [1]) is reported as 86%, the IC50 (Dipeptidyl peptidase 4 [3]) is reported as 4 µM and the inhibition (Dipeptidyl peptidase 4 [3]) is reported as “Active”.

For `O=C1c2c(Cl)c(Cl)c(Cl)c(Cl)c2C(=O)N1c1ccc(CCc2ccccc2)cc1`, the inhibition (Dipeptidyl peptidase 4 [1]) was 12%.

With `O=C1c2c(Cl)c(Cl)c(Cl)c(Cl)c2C(=O)N1c1cccc(CCc2c(F)c(F)c(F)c(F)c2F)c1` the inhibition (Dipeptidyl peptidase 4 [1]) was 19%.
